In article PMC5399792 (Nucleic Acids Research, 2017):
Values joined by “and” are separate entries in the source; they are usually repeats but may differ in a detail not shown here. Equal entries are not always repeated. Where two headings read alike, the source gives them in different places.

Molecular target: influenza B polymerase bound to a c/v hybrid promoter (Influenza B virus, UniProt Q5V8Y6)
Experiment: biochemical
Design: species or system influenza B/Memphis/13/03
[1] = 0.025 mM NTPs, capped RNA primed, T ∼ 21°C, t = 10 min, read-out: IC50 (mM), c/v hybrid promoter
[2] = 0.25 mM NTPs, capped RNA primed, T ∼ 21°C, t = 5 min, read-out: IC50 (mM), c/v hybrid promoter

Compound `Nc1ncnc2c1ncn2[C@@H]1O[C@H](COP(=O)(O)OP(=O)(O)OP(=O)(O)O)[C@@H](O)[C@H]1F` [2'F-2'dATP] has an IC50 [1] of 0.04 mM and an IC50 [2] of 0.33 mM.
In the case of `Nc1ccn([C@@H]2O[C@H](COP(=O)(O)OP(=O)(O)OP(=O)(O)O)[C@@H](O)[C@H]2F)c(=O)n1` [2'F-2'dCTP], the IC50 (IC50 (mM), c/v hybrid promoter) is reported as 0.45 mM and 1.9 mM.
`Nc1nc2c(ncn2[C@@H]2O[C@H](COP(=O)(O)OP(=O)(O)OP(=O)(O)O)[C@@H](O)[C@H]2F)c(=O)[nH]1` [2'F-2'dGTP] gave an IC50 [1] of 0.04 mM and an IC50 [2] of 0.34 mM.
